Laboratory results taken from US20240382483A1, “HETEROCYCLIC EGFR INHIBITORS FOR USE IN THE TREATMENT OF CANCER” (Blueprint Medicines Corporation, priority 2021, published 2024).

Key:
[1] = biological target: T1, intracellular phosphorylation of EGFR in NCI-H1975 cell line that harbors the EGFR L858R T790M mutations (Homo sapiens, UniProt P00533, L858R/T790M); assay: NCI-H1975 pEGFR AlphaLISA assay; format: cell-based; conditions: NCI-H1975 cells (EGFR L858R T790M), p-EGFR (Tyr1068), 4-5 hours incubation; read-out: Ext pEGFR H1975 GMean IC50 (nM) Protocol: @Pharmaron AlphaLISA (Num)
T1 construct: NCI-H1975 cell line that harbors the EGFR L858R T790M mutations (ATCC, CRL-5908); host or cells: NCI-H1975
T1 sequence (P00533 25-1210 T790M/L858R): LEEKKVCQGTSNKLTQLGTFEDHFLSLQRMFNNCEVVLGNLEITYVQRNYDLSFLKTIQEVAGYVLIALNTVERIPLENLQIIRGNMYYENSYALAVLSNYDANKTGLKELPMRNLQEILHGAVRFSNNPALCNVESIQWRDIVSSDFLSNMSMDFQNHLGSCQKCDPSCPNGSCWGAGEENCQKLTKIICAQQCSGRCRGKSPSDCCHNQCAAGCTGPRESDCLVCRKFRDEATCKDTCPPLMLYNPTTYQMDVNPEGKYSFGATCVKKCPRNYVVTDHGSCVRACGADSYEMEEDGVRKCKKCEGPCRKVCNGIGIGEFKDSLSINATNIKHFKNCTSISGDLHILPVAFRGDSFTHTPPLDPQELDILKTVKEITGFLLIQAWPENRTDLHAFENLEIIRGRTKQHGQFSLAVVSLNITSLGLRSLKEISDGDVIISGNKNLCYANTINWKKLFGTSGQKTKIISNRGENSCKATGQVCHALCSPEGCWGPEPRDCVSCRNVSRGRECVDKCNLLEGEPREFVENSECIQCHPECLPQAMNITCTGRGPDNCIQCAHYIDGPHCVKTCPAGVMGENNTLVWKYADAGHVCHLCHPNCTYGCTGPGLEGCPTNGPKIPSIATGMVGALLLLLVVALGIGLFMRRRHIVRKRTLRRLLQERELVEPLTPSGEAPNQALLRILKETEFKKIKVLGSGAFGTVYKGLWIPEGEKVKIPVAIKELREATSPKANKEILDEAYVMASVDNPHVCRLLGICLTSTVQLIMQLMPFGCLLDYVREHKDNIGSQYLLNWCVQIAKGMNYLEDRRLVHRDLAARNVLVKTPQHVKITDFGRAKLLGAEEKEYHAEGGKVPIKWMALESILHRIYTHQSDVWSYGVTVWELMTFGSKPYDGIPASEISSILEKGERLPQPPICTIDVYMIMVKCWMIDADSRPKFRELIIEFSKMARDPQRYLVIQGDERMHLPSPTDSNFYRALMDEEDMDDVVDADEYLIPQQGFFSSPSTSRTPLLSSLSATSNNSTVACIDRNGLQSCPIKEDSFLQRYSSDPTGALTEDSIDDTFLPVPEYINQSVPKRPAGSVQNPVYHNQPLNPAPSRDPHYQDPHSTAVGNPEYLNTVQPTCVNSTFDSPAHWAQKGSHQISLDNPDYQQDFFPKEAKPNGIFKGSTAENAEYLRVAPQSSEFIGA
Procedure: On the next day, the test compounds and DMSO control were added into H1975 cell plate followed by incubation at 37C/5% CO2 for 4-5 hours. […] Then 5 μL of a donor bead mix was added to each well followed by overnight incubation at room temperature in dark. On the next day, the plate was read at a compatible plate reader to obtain pEGFR signal. Percent of pEGFR inhibition was plotted against log concentration of compounds to generate IC50 values.

EGFR (L858R T790M C797S) = biological target: T2, EGFR (L858R T790M C797S) (Homo sapiens, UniProt P00533, C797S/L858R/T790M); assay: Biochemical EGFR inhibition assay (Caliper mobility shift), EGFR LRTMCS; conditions: LRTMCS (PH) IC50 (nM) @ 1 mM ATP (Num), EGFR LRTMCS mutant
T2 construct: purchased SignalChem E10-122VG
T2 sequence (P00533 25-1210 T790M/C797S/L858R): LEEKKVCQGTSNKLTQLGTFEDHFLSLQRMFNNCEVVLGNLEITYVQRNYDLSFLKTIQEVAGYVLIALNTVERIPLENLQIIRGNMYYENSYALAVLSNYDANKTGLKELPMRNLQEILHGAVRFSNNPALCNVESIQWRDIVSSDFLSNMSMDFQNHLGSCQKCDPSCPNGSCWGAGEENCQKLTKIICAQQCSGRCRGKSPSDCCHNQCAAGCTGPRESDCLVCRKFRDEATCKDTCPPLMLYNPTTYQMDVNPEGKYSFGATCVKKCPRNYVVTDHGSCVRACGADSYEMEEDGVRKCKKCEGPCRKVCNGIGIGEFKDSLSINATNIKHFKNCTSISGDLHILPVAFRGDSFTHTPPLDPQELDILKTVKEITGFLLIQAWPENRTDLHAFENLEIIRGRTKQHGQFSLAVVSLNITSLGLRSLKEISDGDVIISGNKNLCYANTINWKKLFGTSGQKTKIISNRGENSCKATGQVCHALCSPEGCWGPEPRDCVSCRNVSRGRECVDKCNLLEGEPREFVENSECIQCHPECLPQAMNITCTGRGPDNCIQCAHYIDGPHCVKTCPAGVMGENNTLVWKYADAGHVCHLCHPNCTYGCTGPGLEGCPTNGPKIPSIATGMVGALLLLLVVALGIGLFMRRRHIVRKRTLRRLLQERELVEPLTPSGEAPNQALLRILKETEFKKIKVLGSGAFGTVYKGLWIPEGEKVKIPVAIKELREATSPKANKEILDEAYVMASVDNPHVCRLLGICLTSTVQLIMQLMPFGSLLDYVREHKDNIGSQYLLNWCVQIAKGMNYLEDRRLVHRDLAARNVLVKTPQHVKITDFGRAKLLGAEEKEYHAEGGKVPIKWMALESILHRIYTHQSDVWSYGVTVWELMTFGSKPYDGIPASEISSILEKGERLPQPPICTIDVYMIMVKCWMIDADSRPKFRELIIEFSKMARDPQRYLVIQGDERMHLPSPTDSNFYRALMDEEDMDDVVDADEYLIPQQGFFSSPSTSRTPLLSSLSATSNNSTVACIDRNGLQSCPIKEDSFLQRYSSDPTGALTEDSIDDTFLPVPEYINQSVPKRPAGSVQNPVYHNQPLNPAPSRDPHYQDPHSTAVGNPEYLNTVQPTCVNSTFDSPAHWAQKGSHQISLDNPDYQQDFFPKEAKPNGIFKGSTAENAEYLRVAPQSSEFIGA
How it was run: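 Apparent IC50s were derived by plotting percent activity against the log of compound concentration. Activity was measured as phosphopeptide electrophoretically separated from substrate, after reactions at room temperature reached 10% to 20% phosphorylation and were halted with 35 mM EDTA.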

Structure (SMILES) | IC50 [1] [nM] | IC50 (EGFR (L858R T790M C797S)) [nM]
CC(C)c1cnc(N2CC(O)C2)c2cnc(Nc3ccnc(N4CC[C@@]5(CCO5)C(F)(F)C4)n3)cc12 (single isomer, unassigned) [Example 146, (R)-1-(6-((2-(5,5-difluoro-1-oxa-7-azaspiro[3.5]nonan-7-yl)pyrimidin-4-yl)amino)-4-isopropyl-2,7-naphthyridin-1-yl)azetidin-3-ol or (S)-1-(6-((2-(5,5-difluoro-1-oxa-7-azaspiro[3.5]nonan-7-yl)pyrimidin-4-yl)amino)-4-isopropyl-2,7-naphthyridin-1-yl)azetidin-3-ol] | 30 to 50 | < 15
CO[C@H]1CCN(c2nccc(Nc3cc4c(C(C)C)ccc(N5CC[C@H]5CN)c4cn3)n2)C[C@H]1F [Example 39, 8-((S)-2-(aminomethyl)azetidin-1-yl)-N-(2-((3R,4S)-3-fluoro-4-methoxypiperidin-1-yl)pyrimidin-4-yl)-5-isopropylisoquinolin-3-amine] | > 50 | < 15
CO[C@@H]1CCN(c2nccc(Nc3cc4c(C(C)C)cnc(N5C[C@H](OCCN)[C@H]5C)c4cn3)n2)C[C@@H]1F [Example 163, 8-((2R,3S)-3-(2-aminoethoxy)-2-methylazetidin-1-yl)-N-(2-((3S,4R)-3-fluoro-4-methoxypiperidin-1-yl)pyrimidin-4-yl)-5-isopropyl-2,7-naphthyridin-3-amine] | 20 to 30 | < 15
CC(C)c1cnc(N2CC(N3CCCC3=O)C2)c2cnc(Nc3ccnc(N4CC[C@@H](O)[C@@](C)(F)C4)n3)cc12 [Example 91, 1-(1-(6-((2-((3S,4R)-3-fluoro-4-hydroxy-3-methylpiperidin-1-yl)pyrimidin-4-yl)amino)-4-isopropyl-2,7-naphthyridin-1-yl)azetidin-3-yl)pyrrolidin-2-one] | > 50 | 15 to 20
COCC1CN(c2ncc(C(C)C)c3cc(Nc4ccnc(N5CC[C@@H](O)[C@@](C)(F)C5)n4)ncc23)C1 [Example 66, (3S,4R)-3-fluoro-1-(4-((5-isopropyl-8-(3-(methoxymethyl)azetidin-1-yl)-2,7-naphthyridin-3-yl)amino)pyrimidin-2-yl)-3-methylpiperidin-4-ol] | 30 to 50 | 20 to 30

More lines, now with the values ahead:

IC50 [1] [nM] | IC50 (EGFR (L858R T790M C797S)) [nM] | Structure (SMILES)
10 to 20 | < 15 | Cc1nnc(-c2ncc(C(C)C)c3cc(Nc4ccnc(N5CC[C@@H](O)[C@@](C)(F)C5)n4)ncc23)o1 [Example 5, (3S,4R)-3-fluoro-1-(4-((5-isopropyl-8-(5-methyl-1,3,4-oxadiazol-2-yl)-2,7-naphthyridin-3-yl)amino)pyrimidin-2-yl)-3-methylpiperidin-4-ol]
< 10 | < 15 | Cc1nnc(C2CN(c3ccc(C(C)C)c4cc(Nc5ccnc(N6CC[C@@H](O)[C@@](C)(F)C6)n5)ncc34)C2)o1 [Example 104, (3S,4R)-3-fluoro-1-(4-((5-isopropyl-8-(3-(5-methyl-1,3,4-oxadiazol-2-yl)azetidin-1-yl)isoquinolin-3-yl)amino)pyrimidin-2-yl)-3-methylpiperidin-4-ol]
20 to 30 | < 15 | COC(=O)NCC1CN(c2ncc(C(C)C)c3cc(Nc4ccnc(N5CC[C@@H](O)[C@@](C)(F)C5)n4)ncc23)C1 [Example 84, methyl ((1-(6-((2-((3S,4R)-3-fluoro-4-hydroxy-3-methylpiperidin-1-yl)pyrimidin-4-yl)amino)-4-isopropyl-2,7-naphthyridin-1-yl)azetidin-3-yl)methyl)carbamate]
